# Source: article PMC2680759, “Non-Invasive Molecular Imaging of Fibrosis Using a Collagen-Targeted Peptidomimetic of the Platelet Collagen Receptor Glycoprotein VI” (PLoS ONE, 2009)
# Bridges are numbered along the chain shown (N, C = ends). Where no end group is shown, it is not given here.
# Assays:
# Settings in all cases: biotin-peptide 50 µg/mL, microtitration plate, n = 3
# [1] = system: collagen related peptide (CRP); experiment: Solid phase assay, collagen related peptide; assay type: binding
# Description: (§1) Biotin-peptides (50 µg.mL^−1) were incubated on microtitration wells, coated with 1 µg of type-I collagen, convulxin, collagen related peptides, bovine fibrinogen, human fibronectin, rat vitronectin, murine laminin or bovine serum albumin. Bound peptides were detected using HRP-coupled extravidin and the HRP substrate O-phenyl-dianisidine.
# laminin = laminin (Mus musculus, UniProt P02468+P02469+P19137); experiment: Solid phase assay, laminin; assay type: binding, murine
# Description: as §1
# fibrinogen = target: T1, fibrinogen (Bos taurus, UniProt P02672+P02676+P12799); experiment: Solid phase assay, fibrinogen; assay type: binding, bovine
# T1 sequence (P02672 20-615): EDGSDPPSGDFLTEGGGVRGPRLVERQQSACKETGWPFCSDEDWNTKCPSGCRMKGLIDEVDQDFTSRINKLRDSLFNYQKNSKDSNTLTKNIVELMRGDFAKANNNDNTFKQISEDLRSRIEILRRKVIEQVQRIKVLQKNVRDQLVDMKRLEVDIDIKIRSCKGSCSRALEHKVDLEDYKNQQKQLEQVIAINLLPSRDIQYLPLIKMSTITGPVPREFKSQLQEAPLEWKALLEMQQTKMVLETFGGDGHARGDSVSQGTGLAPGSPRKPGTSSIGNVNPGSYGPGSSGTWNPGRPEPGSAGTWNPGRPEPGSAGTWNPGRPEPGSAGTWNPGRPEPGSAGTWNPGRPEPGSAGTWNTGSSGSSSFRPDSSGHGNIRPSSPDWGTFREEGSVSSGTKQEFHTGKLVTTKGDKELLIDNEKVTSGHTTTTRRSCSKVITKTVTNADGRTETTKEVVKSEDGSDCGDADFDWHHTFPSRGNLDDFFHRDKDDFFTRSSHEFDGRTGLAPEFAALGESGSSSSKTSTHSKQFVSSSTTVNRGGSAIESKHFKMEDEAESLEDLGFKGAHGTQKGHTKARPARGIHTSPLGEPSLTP
# T1 sequence (P02676 1-468): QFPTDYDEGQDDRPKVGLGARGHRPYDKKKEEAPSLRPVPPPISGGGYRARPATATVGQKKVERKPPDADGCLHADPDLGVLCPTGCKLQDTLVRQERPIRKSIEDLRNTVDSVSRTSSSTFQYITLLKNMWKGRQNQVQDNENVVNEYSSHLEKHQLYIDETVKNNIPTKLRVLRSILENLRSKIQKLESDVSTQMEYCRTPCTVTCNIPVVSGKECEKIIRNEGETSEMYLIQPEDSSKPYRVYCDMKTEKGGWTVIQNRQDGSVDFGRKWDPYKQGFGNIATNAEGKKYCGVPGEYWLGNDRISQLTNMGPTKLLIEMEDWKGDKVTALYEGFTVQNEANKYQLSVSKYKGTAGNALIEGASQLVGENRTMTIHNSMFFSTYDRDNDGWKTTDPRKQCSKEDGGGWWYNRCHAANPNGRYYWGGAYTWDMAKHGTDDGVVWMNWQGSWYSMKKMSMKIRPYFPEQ
# T1 sequence (P12799 25-444): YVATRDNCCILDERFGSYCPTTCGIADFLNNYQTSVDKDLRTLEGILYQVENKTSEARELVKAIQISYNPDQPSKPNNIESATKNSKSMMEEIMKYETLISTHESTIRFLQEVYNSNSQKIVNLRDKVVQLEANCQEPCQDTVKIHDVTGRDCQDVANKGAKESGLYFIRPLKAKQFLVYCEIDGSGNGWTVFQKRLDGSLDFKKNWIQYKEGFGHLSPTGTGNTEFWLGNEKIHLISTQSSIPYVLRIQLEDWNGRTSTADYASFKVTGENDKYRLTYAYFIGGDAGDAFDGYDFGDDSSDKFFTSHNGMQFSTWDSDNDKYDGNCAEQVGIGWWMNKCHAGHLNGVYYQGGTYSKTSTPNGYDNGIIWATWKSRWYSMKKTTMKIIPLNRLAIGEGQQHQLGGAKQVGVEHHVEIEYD
# Description: as §1
# vitronectin = target: T2, vitronectin (Rattus norvegicus, UniProt F7F5X0); experiment: Solid phase assay, vitronectin; assay type: binding
# T2 sequence (F7F5X0 20-490): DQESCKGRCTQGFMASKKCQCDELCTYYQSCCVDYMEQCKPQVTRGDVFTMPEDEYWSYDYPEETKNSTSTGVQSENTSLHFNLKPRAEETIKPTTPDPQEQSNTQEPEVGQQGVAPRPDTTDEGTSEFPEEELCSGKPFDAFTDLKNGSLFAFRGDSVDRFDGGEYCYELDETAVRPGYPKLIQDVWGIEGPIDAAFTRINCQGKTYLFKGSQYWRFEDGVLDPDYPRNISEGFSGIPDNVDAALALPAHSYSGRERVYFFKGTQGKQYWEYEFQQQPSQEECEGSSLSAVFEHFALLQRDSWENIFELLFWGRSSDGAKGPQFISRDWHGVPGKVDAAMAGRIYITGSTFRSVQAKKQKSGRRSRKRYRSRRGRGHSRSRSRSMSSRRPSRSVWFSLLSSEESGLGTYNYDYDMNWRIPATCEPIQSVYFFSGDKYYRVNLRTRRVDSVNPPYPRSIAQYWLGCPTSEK
# Description: as §1
# fibronectin = fibronectin (Homo sapiens, UniProt P02751); experiment: Solid phase assay, fibronectin; assay type: binding
# Description: as §1
# Sequence of fibronectin (P02751 32-2477): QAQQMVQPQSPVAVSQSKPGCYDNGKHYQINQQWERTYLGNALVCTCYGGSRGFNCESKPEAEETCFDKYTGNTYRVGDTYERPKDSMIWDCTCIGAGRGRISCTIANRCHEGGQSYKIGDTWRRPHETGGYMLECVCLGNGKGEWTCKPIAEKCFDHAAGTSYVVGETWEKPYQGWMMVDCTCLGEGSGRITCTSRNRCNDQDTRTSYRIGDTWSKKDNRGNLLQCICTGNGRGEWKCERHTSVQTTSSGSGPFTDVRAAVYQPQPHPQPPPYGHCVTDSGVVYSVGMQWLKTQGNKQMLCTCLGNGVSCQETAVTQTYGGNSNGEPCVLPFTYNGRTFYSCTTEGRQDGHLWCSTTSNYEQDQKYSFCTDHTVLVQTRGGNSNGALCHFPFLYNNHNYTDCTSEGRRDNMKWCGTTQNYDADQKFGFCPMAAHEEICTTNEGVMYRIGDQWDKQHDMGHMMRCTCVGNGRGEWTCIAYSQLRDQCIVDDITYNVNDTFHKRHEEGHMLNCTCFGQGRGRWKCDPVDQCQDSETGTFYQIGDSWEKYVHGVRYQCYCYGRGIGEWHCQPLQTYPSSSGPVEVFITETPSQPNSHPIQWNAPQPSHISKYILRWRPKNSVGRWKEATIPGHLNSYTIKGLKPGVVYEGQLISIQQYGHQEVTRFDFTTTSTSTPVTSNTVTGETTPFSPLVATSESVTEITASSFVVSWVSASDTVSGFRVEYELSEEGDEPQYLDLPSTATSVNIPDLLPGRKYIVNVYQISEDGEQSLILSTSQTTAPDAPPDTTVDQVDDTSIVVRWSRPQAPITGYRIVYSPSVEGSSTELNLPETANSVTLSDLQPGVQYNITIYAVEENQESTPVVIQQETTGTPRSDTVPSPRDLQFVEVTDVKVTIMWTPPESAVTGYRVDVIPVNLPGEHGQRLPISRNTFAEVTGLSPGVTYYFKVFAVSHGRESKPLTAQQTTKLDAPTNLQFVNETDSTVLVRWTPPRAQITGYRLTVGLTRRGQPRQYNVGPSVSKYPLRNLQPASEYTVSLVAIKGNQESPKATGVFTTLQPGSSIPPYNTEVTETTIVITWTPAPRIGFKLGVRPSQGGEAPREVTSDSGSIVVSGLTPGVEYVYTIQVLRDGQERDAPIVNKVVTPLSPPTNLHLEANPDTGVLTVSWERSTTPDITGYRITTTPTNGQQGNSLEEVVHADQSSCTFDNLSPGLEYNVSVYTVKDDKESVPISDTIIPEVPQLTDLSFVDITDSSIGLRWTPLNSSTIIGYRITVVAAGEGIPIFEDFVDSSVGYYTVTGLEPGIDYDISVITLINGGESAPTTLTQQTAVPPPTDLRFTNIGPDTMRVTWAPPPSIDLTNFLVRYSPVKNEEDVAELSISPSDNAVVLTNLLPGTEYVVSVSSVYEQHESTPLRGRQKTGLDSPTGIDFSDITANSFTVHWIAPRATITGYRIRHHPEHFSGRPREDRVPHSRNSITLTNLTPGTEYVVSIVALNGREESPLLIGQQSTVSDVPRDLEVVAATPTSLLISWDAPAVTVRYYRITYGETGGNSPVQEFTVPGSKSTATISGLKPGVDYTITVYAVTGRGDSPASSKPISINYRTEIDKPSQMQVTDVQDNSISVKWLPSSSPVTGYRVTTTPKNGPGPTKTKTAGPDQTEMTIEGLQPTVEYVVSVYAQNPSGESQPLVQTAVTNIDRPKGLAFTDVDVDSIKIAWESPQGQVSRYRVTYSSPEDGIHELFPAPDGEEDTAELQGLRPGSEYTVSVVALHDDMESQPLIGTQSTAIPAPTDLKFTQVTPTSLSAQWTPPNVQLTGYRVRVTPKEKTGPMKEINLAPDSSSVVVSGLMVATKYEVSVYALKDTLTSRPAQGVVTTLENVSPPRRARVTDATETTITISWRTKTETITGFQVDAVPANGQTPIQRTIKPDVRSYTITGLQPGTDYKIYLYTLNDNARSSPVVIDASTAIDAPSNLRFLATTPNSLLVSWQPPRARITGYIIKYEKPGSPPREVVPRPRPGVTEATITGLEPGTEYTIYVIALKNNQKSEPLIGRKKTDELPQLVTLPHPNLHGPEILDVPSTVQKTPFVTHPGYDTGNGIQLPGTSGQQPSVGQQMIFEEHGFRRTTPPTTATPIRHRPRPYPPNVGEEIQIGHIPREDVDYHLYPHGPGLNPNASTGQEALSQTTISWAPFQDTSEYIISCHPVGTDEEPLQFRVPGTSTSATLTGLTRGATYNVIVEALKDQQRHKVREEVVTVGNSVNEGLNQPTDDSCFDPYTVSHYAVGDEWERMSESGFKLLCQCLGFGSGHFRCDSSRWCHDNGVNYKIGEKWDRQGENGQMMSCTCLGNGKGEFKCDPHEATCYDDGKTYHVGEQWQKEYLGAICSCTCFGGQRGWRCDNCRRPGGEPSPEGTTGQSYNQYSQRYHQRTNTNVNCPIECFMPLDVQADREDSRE
Molecule,Binding to immobilized CRP [1],Binding to immobilized laminin (laminin),Binding to immobilized fibrinogen (fibrinogen),Binding to immobilized vitronectin (vitronectin),Binding to immobilized fibronectin (fibronectin)
CSCC[C@@H]1NC(=O)[C@H](C(C)C)NC(=O)[C@H](CCCNC(=N)N)NC(=O)CNC(=O)[C@@H]2CCCN2C(=O)[C@@H](NC(=O)CNC(=O)[C@H](CO)NC(=O)CNC(=O)[C@H](CO)NC(=O)CCCC[C@@H]2SC[C@@H]3NC(=O)N[C@@H]32)CSSC[C@@H](C(N)=O)NC(=O)[C@@H]2CCCN2C(=O)CNC(=O)[C@H](CCC(=O)O)NC(=O)[C@H](CC(=O)O)NC(=O)[C@H](CC(=O)O)NC(=O)CNC(=O)[C@H](CC(C)C)NC(=O)[C@H](Cc2c[nH]cn2)NC(=O)[C@H](CC(C)C)NC(=O)CNC(=O)[C@H](Cc2c[nH]cn2)NC1=O [collagelin],bound,consistently bound,either to be weak or not to occur at all,either to be weak or not to occur at all,either to be weak or not to occur at all
SGSGCGPQGARGLTGASAGGPC (disulfide 5-22 (inferred)) [reference compound],did not bind,did not bind,did not bind,did not bind,did not bind
